Measured values reported in ChEMBL document CHEMBL4819031, “Sesquiterpenoids from the Aerial Parts of Salvia plebeia with Inhibitory Activities on Proprotein Convertase Subtilisin/Kexin Type 9 Expression” (J Nat Prod, 2021).
The source made the active and inactive calls. No cut-off for these calls is given here.

What was measured:
HepG2 [1] = test: Down regulation of PCSK9 mRNA expression in human HepG2 cells at 50 uM incubated for 24 hrs by SYBR green dye-based qRT-PCR analysis; assay type: functional, cell-based
[2] = molecular target: PCSK9/LDLR (Homo sapiens) (UniProt Q8NBP7+P01130); test: Inhibition of PCSK9 (unknown origin) interaction with LDLR (unknown origin) by ELISA; assay type: protein assay
[3] = Down regulation of PCSK9 mRNA expression in human HepG2 cells incubated for 24 hrs by SYBR green dye-based qRT-PCR analysis; assay type: functional, cell-based; settings: HepG2, 24 h
HepG2 [4] = test: Down regulation of PCSK9 protein expression in human HepG2 cells at 10 to 50 uM incubated for 24 hrs by Western blotting analysis; assay type: functional, cell-based; settings: dose 10-50 µM
HepG2 [5] = test: Up regulation of LDLR protein expression in human HepG2 cells at 10 to 50 uM incubated for 24 hrs by Western blotting analysis; assay type: functional, cell-based; settings: dose 10-50 µM

Sequence of PCSK9/LDLR (Homo sapiens) (P01130 22-860 partner limits assumed): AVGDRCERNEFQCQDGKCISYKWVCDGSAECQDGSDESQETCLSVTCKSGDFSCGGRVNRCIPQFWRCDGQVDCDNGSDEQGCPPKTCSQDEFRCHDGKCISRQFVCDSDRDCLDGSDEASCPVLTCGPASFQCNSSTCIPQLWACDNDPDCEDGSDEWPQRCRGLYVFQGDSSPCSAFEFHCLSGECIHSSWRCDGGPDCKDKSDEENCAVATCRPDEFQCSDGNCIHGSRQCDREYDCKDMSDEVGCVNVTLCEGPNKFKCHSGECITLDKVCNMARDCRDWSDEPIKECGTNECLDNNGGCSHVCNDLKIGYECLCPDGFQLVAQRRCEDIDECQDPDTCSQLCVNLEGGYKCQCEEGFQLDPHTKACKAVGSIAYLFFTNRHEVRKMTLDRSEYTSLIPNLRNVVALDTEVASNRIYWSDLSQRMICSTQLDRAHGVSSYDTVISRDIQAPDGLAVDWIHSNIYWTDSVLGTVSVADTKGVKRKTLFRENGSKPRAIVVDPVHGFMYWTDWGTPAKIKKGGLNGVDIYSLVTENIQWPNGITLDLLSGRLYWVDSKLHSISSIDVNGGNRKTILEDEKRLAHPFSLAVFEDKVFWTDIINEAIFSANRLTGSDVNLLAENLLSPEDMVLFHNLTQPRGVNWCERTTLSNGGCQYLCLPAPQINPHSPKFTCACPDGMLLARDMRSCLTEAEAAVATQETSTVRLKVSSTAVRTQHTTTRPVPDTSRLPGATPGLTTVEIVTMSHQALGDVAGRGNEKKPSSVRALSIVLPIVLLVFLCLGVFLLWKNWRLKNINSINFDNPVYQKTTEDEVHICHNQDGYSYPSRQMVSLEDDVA
Sequence of PCSK9/LDLR (Homo sapiens) (Q8NBP7 31-152 limits assumed): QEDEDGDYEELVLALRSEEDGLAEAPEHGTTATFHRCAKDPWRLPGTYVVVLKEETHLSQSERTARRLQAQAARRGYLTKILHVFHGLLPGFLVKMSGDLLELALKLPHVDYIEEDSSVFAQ
Sequence of PCSK9/LDLR (Homo sapiens) (Q8NBP7 153-692 limits assumed): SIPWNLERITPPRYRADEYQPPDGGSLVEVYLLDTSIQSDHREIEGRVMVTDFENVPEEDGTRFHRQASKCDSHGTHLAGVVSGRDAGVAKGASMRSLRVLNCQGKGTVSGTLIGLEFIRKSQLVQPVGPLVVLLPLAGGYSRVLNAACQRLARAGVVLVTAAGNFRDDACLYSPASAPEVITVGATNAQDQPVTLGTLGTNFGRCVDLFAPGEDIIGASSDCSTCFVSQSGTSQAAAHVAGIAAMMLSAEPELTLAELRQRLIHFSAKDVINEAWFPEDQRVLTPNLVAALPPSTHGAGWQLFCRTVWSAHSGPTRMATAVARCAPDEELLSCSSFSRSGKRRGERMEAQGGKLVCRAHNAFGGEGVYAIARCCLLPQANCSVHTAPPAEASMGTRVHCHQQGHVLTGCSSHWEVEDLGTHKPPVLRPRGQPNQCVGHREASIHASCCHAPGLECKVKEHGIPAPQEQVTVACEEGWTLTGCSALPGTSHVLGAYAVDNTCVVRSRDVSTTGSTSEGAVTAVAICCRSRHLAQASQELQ

inhibition [2]	Structure (SMILES)	further results
inactive	CC1=C2C[C@@H]3[C@@H](C)C(=O)C=C[C@@]3(C)C[C@@]2(O)OC1=O	Activity (HepG2 [1]): Active; IC50 [3]: 27.8 µM; Activity (HepG2 [4]): Active; Activity (HepG2 [5]): Active
inactive	CO[C@]12C[C@@]3(C)[C@H](OC(C)=O)C(=O)C=C(C)[C@@H]3CC1=C(C)C(=O)O2	Activity (HepG2 [1]): Active; IC50 [3]: 25.2 µM
inactive	COc1c(O)cc2oc(-c3ccc(O)cc3)cc(=O)c2c1O	
inactive	CC(=O)O[C@@H]1C(=O)C=C(C)[C@]2(O)C/C(=C(\C)C(=O)O)C(O)=C[C@]12C	
inactive	CO[C@]12C[C@@]3(C)[C@H](CC1=C(C)C(=O)O2)C(C)=CC(=O)[C@@H]3OC(C)=O	
	COc1ccc2cc3[n+](cc2c1OC)CCc1cc2c(cc1-3)OCO2 [BERBERINE CHLORIDE]	IC50 [3]: 13.8 µM
inactive	CC(=O)O[C@@H]1C(=O)C=C(C)[C@@H]2CC3=C(C)C(=O)O[C@@H]3C[C@@]12C	
inactive	COC(=O)[C@H](C)[C@H]1C[C@]2(O)C(C)=CC(=O)[C@H](OC(C)=O)[C@]2(C)CC1=O	
inactive	CC(=O)O[C@H]1C[C@@H](O)[C@@]2(C)C=C3OC(=O)C(C)=C3C[C@@H]2[C@H]1C	
inactive	CC(=O)O[C@H]1C(=O)C=C(C)[C@H]2CC3=C(C)C(=O)OC3=C[C@@]21C	
inactive	CO[C@@H]1CC(=O)[C@H](C)[C@H]2C/C(=C(\C)C(=O)O)C[C@@]21C	Activity (HepG2 [1]): Active; IC50 [3]: 24.4 µM; Activity (HepG2 [4]): Active; Activity (HepG2 [5]): Active
inactive	CC(=O)O[C@H]1C[C@H](O)[C@]2(C)C[C@@H]3OC(=O)C(C)=C3C[C@H]2[C@@H]1C	
inactive	CC1=CC(=O)[C@H](O)[C@@]2(C)C=C3OC(=O)C(C)=C3C[C@H]12	
inactive	CC(=O)O[C@H]1C[C@@H](O)[C@@]2(C)C[C@H](O)/C(=C(/C)C(=O)O)C[C@@H]2[C@H]1C	
inactive	CC(=O)O[C@H]1C(=O)C=C(C)[C@H]2CC3=C(C)C(=O)O[C@@H]3C[C@@]21C	
inactive	CO[C@@]12C[C@]3(C)[C@H](O)C[C@H](OC(C)=O)[C@H](C)[C@H]3CC1=C(C)C(=O)O2	
inactive	CC(=O)O[C@H]1C[C@@H](O)[C@@]2(C)C[C@@]3(O)OC(=O)C(C)=C3C[C@@H]2[C@H]1C	
inactive	COc1c(O)cc2c(c1O)C(=O)C[C@@H](c1ccc(O)cc1)O2	
inactive	CC(=O)O[C@H]1C(=O)C=C(C)[C@H]2CC3=C(C)C(=O)O[C@]3(O)C[C@@]21C	
inactive	CC1=C2C[C@@H]3[C@@H](C)[C@@H](O)C[C@@H](O)[C@@]3(C)C=C2OC1=O	
